Measured values reported in patent US20240197666A1, “DITERPENOID COMPOUNDS THAT ACT ON PROTEIN KINASE C (PKC)” (K-Gen Therapeutics, Inc., priority 2021, published 2024).
Read-outs that look alike come from different tables or passages of the source.

Experiments:
[1] = tested on: phosphorylation of PKCμ, PKCδ and Erk1/2 in A549 lung cancer cells; assay: Western blot of activation of PKC and downstream target protein in A549 cells; format: cell-based; conditions: 3 μM, 30 minutes
Description: According to the methods described in patent (WO/2017/083783) A549 lung cancer cells (˜3 million cells) were seeded in 10 cm tissue culture dishes (or ˜1 million cells in 6 cm dish) and grown overnight. Cells were then treated with different drugs at indicated concentrations for 30 minutes. Cell lysate preparation, protein quantitation, SDS-PAGE, and Western blotting procedures are described (WO/2017/083783). β-actin or Vinculin was used as loading controls. Imagequant LAS4000 (GE) was used to scan membranes if secondary antibodies anti-mouse IgG HRP conjugate or anti-rabbit IgG HRP conjugate (dilutions from 1:2000-1:10000) were used. For ProteinSimple Wes system, manufacture's procedure was followed (ProteinSimple 12-230 kDa Wes Separation Module) for sample preparation, loading, running, and data analysis.
Phosphorylation of these sites has been linked to acute activation or catalytic activity of the PKC isoforms and Erk1/2. High level of phosphorylation indicates strong activation.
A subset of the diterpenoid compounds with good binding affinity to novel PKC isoforms and PKCμ was tested at two different concentrations in A549 cells to assess activation of PKCμ, PKCδ, and Erk1/2 by Western blot analysis. In addition to the phospho-specific antibodies described above, an additional phospho-specific antibody P-PKCδ (S299) (Abcam cat #133456) was also used. This antibody has been shown in the literature (Durgan et al., FEBS Lett. 2007, 581(18):3377-81, Novel phosphorylation site markers of protein kinase C delta activation) to be able to detect activation of PKCδ. K-101 (prostratin, 1 μM) was included as reference compounds.

[2] = tested on: A549 cell line; assay: Proliferation of A549 (CellTiter Glo); format: cell-based; conditions: read-out: IC50 μM (A549 Cell Line)
Procedure, shortened: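 A549 cells (K-Ras-mutant NSCLC) were seeded at 1,000 cells/well, allowed 24 h to settle, then exposed for 96 h to 3-fold serially diluted compound (final DMSO ≤0.25%). CellTiter Glo luminescence was read, and inhibition was calculated relative to DMSO-only wells. IC50, relative IC50 and % top inhibition came from curve fitting.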

[3] = target: T1, C1b domain of human PKCδ (Homo sapiens, UniProt Q05655); assay: biochemical; format: binding; conditions: 3H-PDBu competition
T1 construct: Genes encoding C1b domains of human PKCα, δ, ε, θ, and PKD1 (PKCμ) were synthesized; made in house; host or cells: E. coli BL21(DE3)
Description: (§1) Compounds described in this disclosure were tested for binding affinity to C1b domain of PKC isoforms. Compound binding affinity to C1b domain of PKC isoforms was derived from competitive binding assay using radioactive tracer ^3H-PDBu and recombinant GST-C1b or full-length of human PKC proteins based on modified procedures from Methods in Molecular Biology, vol.
(§2) Genes encoding C1b domains of human PKCα, δ, ε, θ, and PKD1 (PKCμ) were synthesized and inserted into pGEX-2TK or pGEX-4T1 vectors for expression and production of GST-C1b proteins in E. coli BL21(DE3) via IPTG induction. The target proteins were purified by glutathione sepharose 4B and followed by ion exchange chromatography if needed to achieve purity >70%. Aliquots of the purified proteins were stored at −80 degree for binding assay (storage buffer: 20 mM Tris pH 8.0, 200 mM NaCl, 10% glycerol, 1 mM DTT).
(§3) The plate was incubated at 37° C. on a shaker at 300 rpm for 10 minutes and then put on ice for 20 minutes. […] The bottom of the filter plate was sealed and 50 μL of MicroScint-20 (PerkinElmer) cocktail was added to each well. ^3H-PDBu trapped in each well was counted using PerkinElmer MicroBeta2 Reader. Data were analyzed using GraphPad Prism5 with the model “log(inhibitor) vs. response-variable slope” to fit the IC50, and then IC50 was transformed to Ki using Cheng-Prusoff equation: Ki=IC50/(1+added radio ligand/Kd). Kd is the binding affinity of each protein preparation to ^3H-PDBu, determined experimentally.

[4] = target: T2, C1b domain of human PKCε (Homo sapiens, UniProt Q02156); assay: biochemical; format: binding; conditions: 3H-PDBu competition
T2 construct: Genes encoding C1b domains of human PKCα, δ, ε, θ, and PKD1 (PKCμ) were synthesized; made in house; host or cells: E. coli BL21(DE3)
Description: as §1, §2, §3

[5] = target: T3, C1b domain of human PKCθ (Homo sapiens, UniProt Q04759); assay: biochemical; format: binding; conditions: 3H-PDBu competition
T3 construct: Genes encoding C1b domains of human PKCα, δ, ε, θ, and PKD1 (PKCμ) were synthesized; made in house; host or cells: E. coli BL21(DE3)
T3 sequence (Q04759 231-281 limits assumed): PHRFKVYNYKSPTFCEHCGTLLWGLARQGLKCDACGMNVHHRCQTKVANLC
Description: as §1, §2, §3

[6] = tested on: Panc2.13 (Pancreatic); assay: Proliferation of Panc2.13; format: cell-based; conditions: for IC50: read-out: IC50 Panc2.13 (Pancreatic)
Description: (§4) The diterpenoid compounds were tested in A549, a non-small cell lung cancer cell line harboring a K-Ras activating mutation. Briefly, A549 cells at a density of 1,000 cells/well were seeded in 96-well plates and incubated at 37° C. for 24 hours. A series of different concentrations of compound stocks (500×) were prepared by 3-fold serial dilution in DMSO. These compounds were further diluted in culture media and then added to cells so that the final DMSO concentration was not exceeding 0.25%. After 96 hours of incubation, 50 μL of CellTiter Glo reagent (Promega) was added to each well and luminescence was measured after 10 minutes using EnVision (PerkinElmer). Luminescence from cells treated with DMSO alone was set as Max and % of inhibition was calculated as follows: Inhibition %=(Max-Sample value)/Max×100. Data was analyzed using XL-fit software (ID Business Solutions Ltd.) and IC50, relative IC50, and % of top inhibition was calculated. Some of the compounds in this disclosure were very potent in blocking proliferation of A549 lung cancer cells at low nM range. In addition, potency of inhibiting A549 proliferation correlated well with its binding affinity to PKCs for this series of compounds. In other words, higher affinity binders had stronger inhibitory effects on A549 proliferation. This further support the notion that activation, rather than inhibition, of certain PKC isoforms is required to block proliferation of cancer cells, some of which may harbor K-Ras mutations. This is in sharp contrast to previous literature and common belief that inhibition of PKC is necessary to block cancer cell growth (Kang, 2014, New Journal of Science, 2014:1-36). Data presented here is in agreement with recent findings that many loss-of-function but not gain-of-function mutations of PKC isoforms have been identified in many human cancers (Antal et al., 2015, Cell, 160:489-502).
(§5) The compounds in this disclosure were tested for their potency in blocking proliferation of a few other cancer cells lines, including K-Ras mutant pancreatic cell lines Panc2.13 and KP-4, leukemia cell line HL-60, and lymphoma cell lines Namalwa and Mino. Similar procedures as in Example 67 were followed. Initial cell numbers seeded in 96-well plates were different for different cell lines: 3000 cells/well for Panc2.13; 800-1000 cells/well for KP-4; 5000 cells/well for HL-60; 5000-10000 cells/well for Namalwa and Mino. A ratio of (IC50 of K101)/(IC50 of compound) (data in parenthesis in Table 5) was used to normalize the compound potency from different assay batches to a common comparator K101.

[7] = tested on: KP-4 (Pancreatic); assay: Proliferation of KP-4; format: cell-based; conditions: read-out: IC50 KP-4 (Pancreatic)
Description: as §4, §5

[8] = tested on: HL-60 (Leukemia); assay: Proliferation of HL-60; format: cell-based; conditions: for IC50: Homo sapiens, HL-60, read-out: IC50 HL-60 (Leukemia)
Description: as §4, §5

[9] = tested on: Namalwa (Lymphoma); assay: Proliferation of Namalwa; format: cell-based; conditions: for IC50: read-out: IC50 Namalwa (Lymphoma)
Description: as §4, §5

[10] = tested on: Mino (Lymphoma); assay: Proliferation of Mino; format: cell-based; conditions: for IC50: Homo sapiens, MINO, read-out: IC50 Mino (Lymphoma)
Description: as §4, §5

[11] = tested on: NFκB-driven transcription in HeLa-NFκB luciferase reporter cell line; assay: NFκB luciferase reporter assay; conditions: Homo sapiens, HeLa, 16 h, read-out: NFκB-luc HeLa cells EC50 (μM)
[12] = target: T4, C1b domain of human PKD1 (PKCμ) (Homo sapiens, UniProt Q15139); assay: Competitive 3H-PDBu binding assay, C1b domain of PKD1 (PKCμ); conditions: 3H-PDBu competition
T4 construct: Genes encoding C1b domains of human PKCα, δ, ε, θ, and PKD1 (PKCμ) were synthesized; made in house; host or cells: E. coli BL21(DE3)
T4 sequence (Q15139 270-320 limits assumed): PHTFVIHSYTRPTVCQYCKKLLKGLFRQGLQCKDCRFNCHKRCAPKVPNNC
Description: as §1, §2, §3

T2 sequence (Q02156 242-292 limits assumed): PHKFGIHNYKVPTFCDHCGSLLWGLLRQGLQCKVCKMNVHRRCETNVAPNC
T1 sequence (Q05655 230-280 limits assumed): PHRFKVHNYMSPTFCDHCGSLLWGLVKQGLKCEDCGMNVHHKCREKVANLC

Row | SMILES | phosphorylation of PKCμ, PKCδ and Erk1/2 [1] | IC50 ([2]; Homo sapiens, A549, 96 h) [µM] | Ki [3] [nM] | Ki [4] [nM] | Ki [5] [nM] | ratio (IC50 of K101)/(IC50 of compound) HL-60 [8] | IC50 [8] [nM] | ratio (IC50 of K101)/(IC50 of compound) Namalwa [9] | ratio (IC50 of K101)/(IC50 of compound) Mino [10] | IC50 [10] [nM] | EC50 [11] [µM] | other results
1 | CC1=C[C@H]2[C@@]3(O)[C@H](C)C[C@]4(OC(=O)CCc5ccccn5)[C@H]([C@@H]3C=C(CO)C[C@]2(O)C1=O)C4(C)C | induced phosphorylation | 0.6 to 1 |  |  |  |  |  |  |  |  |  | 
2 | CC1=C[C@H]2[C@@]3(O)[C@H](C)C[C@]4(OC(=O)/C=C/c5ccc(C(F)(F)F)cc5)[C@H]([C@@H]3C=C(CO)C[C@]2(O)C1=O)C4(C)C |  | 0.06 to 0.1 | 10 to 30 | 10 to 30 | 10 to 30 |  |  |  |  |  |  | 
3 | CC1=C[C@H]2[C@@]3(O)[C@H](C)C[C@]4(OC(=O)[C@H](N)Cc5ccccc5)[C@H]([C@@H]3C=C(CO)C[C@]2(O)C1=O)C4(C)C | induced phosphorylation | 1 to 2 |  |  |  |  |  |  |  |  |  | 
4 | CC1=C[C@H]2[C@@]3(O)[C@H](C)C[C@]4(OC(=O)CC5CC6(C5)CN(C(=O)OC(C)(C)C)C6)[C@H]([C@@H]3C=C(CO)C[C@]2(O)C1=O)C4(C)C |  | 0.03 to 0.06 |  | 10 to 30 | 10 to 30 |  |  |  |  |  |  | 
5 | CC1=C[C@H]2[C@@]3(O)[C@H](C)C[C@]4(OC(=O)[C@@H](N)CCc5ccccc5)[C@H]([C@@H]3C=C(CO)C[C@]2(O)C1=O)C4(C)C |  | 0.1 to 0.2 |  |  | 10 to 30 | 3.21 | 100 to 200 | 0.93 | 3.18 | 10 to 30 | 0.1 to 0.2 | ratio (IC50 of K101)/(IC50 of compound) Panc2.13 [6]: 4.28; IC50 [6]: 200 to 600 nM; IC50 [7]: 100 to 200 nM; IC50 ([9]; 96 h): 100 to 600 nM
6 | CC1=C[C@H]2[C@@]3(O)[C@H](C)C[C@]4(OC(=O)[C@H](N)CCCCCCCCc5ccccc5)[C@H]([C@@H]3C=C(CO)C[C@]2(O)C1=O)C4(C)C |  | 0.01 to 0.03 | 10 to 30 | 10 to 30 | 10 to 30 |  |  |  |  |  |  | 
7 | CC1=C[C@H]2[C@@]3(O)[C@H](C)C[C@]4(OC(=O)[C@H](N)C(C)(C)c5ccc(C(F)(F)F)cc5)[C@H]([C@@H]3C=C(CO)C[C@]2(O)C1=O)C4(C)C |  | 0.2 to 0.6 | 10 to 30 | 10 to 30 | 10 to 30 | 2.75 | 100 to 200 | 0.49 | 3.88 | 10 to 30 | 0.1 to 0.2 | IC50 [9]: 100 to 200 nM
8 | CC1=C[C@H]2[C@@]3(O)[C@H](C)C[C@]4(OC(=O)[C@@H](N)Cc5ccc(C(F)(F)F)cc5)[C@H]([C@@H]3C=C(CO)C[C@]2(O)C1=O)C4(C)C |  | 0.06 to 0.1 |  |  |  | 6.43 | 30 to 60 | 1.68 | 6.2 | 10 to 30 | 0.06 to 0.1 | ratio (IC50 of K101)/(IC50 of compound) Panc2.13 [6]: 6.79; IC50 [6]: 100 to 200 nM; IC50 ([7]; 96 h): 100 to 600 nM; IC50 [9]: 30 to 60 nM
9 | CC1=C[C@H]2[C@@]3(O)[C@H](C)C[C@]4(OC(=O)CCc5ccncc5)[C@H]([C@@H]3C=C(CO)C[C@]2(O)C1=O)C4(C)C | induced phosphorylation | 1 to 2 |  |  |  |  |  |  |  |  |  | 
10 | CCCCCCCCCCCCCC(=O)O[C@@H]1[C@@H](C)[C@@]2(O)[C@@H](C=C(CO)C[C@]3(O)C(=O)C(C)=C[C@@H]23)[C@@H]2C(C)(C)[C@]12OC(C)=O [Compound K103, 12-O-Tetradecanoylphorbol-13-acetate, reference compound] |  |  | < 5 | < 5 | < 5 |  |  |  |  |  |  | Ki [12]: < 5 nM; IC50 ([2]; 96 hours, CellTiter Glo): < 0.01 µM
